US20060211026A1, “Methods for assessing emphysema” (Roche Palo Alto LLC, priority 2005, published 2006)

Assays:
Type in all cases: in vivo, Sprague-Dawley rats
[1] = test system: gene expression in lung right lobes of 8 months smoked rats; assay: Lung gene expression by quantitative PCR in smoke-exposed rats; settings: for Adam17 gene expression relative to 8 months smoked rats / Angpt1 gene expression relative to 8 months smoked rats / Areg gene expression relative to 8 months smoked rats / Colla1 gene expression relative to 8 months smoked rats / Crabp2 gene expression relative to 8 months smoked rats / Csf2 gene expression relative to 8 months smoked rats / Cxcl1 gene expression relative to 8 months smoked rats / Cxcl2 gene expression relative to 8 months smoked rats / Cxcl5 gene expression relative to 8 months smoked rats / Cyp26a1 gene expression relative to 8 months smoked rats / EGFR gene expression relative to 8 months smoked rats / Eln gene expression relative to 8 months smoked rats / FGF7 gene expression relative to 8 months smoked rats / Flt1 gene expression relative to 8 months smoked rats / Hif1a gene expression relative to 8 months smoked rats / HpGF gene expression relative to 8 months smoked rats / Hyou1 gene expression relative to 8 months smoked rats / Il6 gene expression relative to 8 months smoked rats / Il8ra/CXCR1 gene expression relative to 8 months smoked rats / Il8rb/CXCR2 gene expression relative to 8 months smoked rats / Kdr gene expression relative to 8 months smoked rats / Mmp9 gene expression relative to 8 months smoked rats / Mmp12 gene expression relative to 8 months smoked rats / PDGFA gene expression relative to 8 months smoked rats / Pgf gene expression relative to 8 months smoked rats / Rbp1 gene expression relative to 8 months smoked rats / Serpina1 gene expression relative to 8 months smoked rats / Sftpa1 gene expression relative to 8 months smoked rats / Sftpb gene expression relative to 8 months smoked rats / Slpi gene expression relative to 8 months smoked rats / TNF gene expression relative to 8 months smoked rats / Tek gene expression relative to 8 months smoked rats / Tgfb1 gene expression relative to 8 months smoked rats / Tgfbr2 gene expression relative to 8 months smoked rats / Tgm2 gene expression relative to 8 months smoked rats / Timp3 gene expression relative to 8 months smoked rats / VEGFa gene expression relative to 8 months smoked rats: rat lung
Experimental: (§1) (B) Adult male Sprague-Dawley rats were exposed daily to 10 cigarettes/rat for 8 months (control rats were exposed to air) to establish emphysema lesions. […] Supernatant from homogenized lung tissue was analyzed for concentration of tropoelastin by ELISA (using rabbit anti-tropoelastin; Elastin Products Co.).
RNA prepared from snap-frozen lung right lobes was analyzed for gene expression by quantitative PCR, using ABI Taqman following standard procedures.

[2] = test system: tropoelastin; assay: Tropoelastin ELISA in homogenized lung tissue of smoke-exposed rats; settings: oral daily 30 days after 8 months smoke; ATRA 3 mg/kg, R667 0.07-0.7 mg/kg; FIG. 1
Experimental: FIG. 1 depicts the amount of tropoelastin (in ng) measured in rats after treatment as set forth in Example 1(B).
as §1

[3] = test system: gene expression in lung right lobes of 8 months smoked rats; assay: Lung gene expression by Affymetrix microarray in smoke-exposed rats
Experimental: as §1
Three individual lung right lobes from each condition were processed to extract mRNA according to standard Affymetrix protocols, and samples hybridized to Affymetrix Rat Expression Set 230 microarrays. Gene expression was analyzed using the Bioconductor package (Gentleman et al., Genome Biol (2004) v. 5), and differentially expressed genes selected using ANOVA model followed by Dunnett's test.

[4] = R667 0.07 mg/kg oral daily 30 days
[5] = R667 0.15 mg/kg oral daily 30 days
[6] = R667 0.7 mg/kg oral daily 30 days

SMILES: CC1(C)CCC(C)(C)c2cc(Cn3cccn3)c(C=Cc3ccc(C(=O)O)cc3)cc21 [R667, 4-[2-(5,5,8,8-tetramethyl-3-pyrazol-1-ylmethyl-5,6,7,8-tetrahydronaphthalen2-yl)-vinyl]-benzoic acid]
- Adam17 gene expression relative to 8 months smoked rats [1, 4]: 3.5
- Angpt1 gene expression relative to 8 months smoked rats [1, 4]: 3.8
- Areg gene expression relative to 8 months smoked rats [1, 4]: 5.9
- Colla1 gene expression relative to 8 months smoked rats [1, 4]: 7.1
- Crabp2 gene expression relative to 8 months smoked rats [1, 4]: 2.0
- Csf2 gene expression relative to 8 months smoked rats [1, 4]: 1.5
- Cxcl1 gene expression relative to 8 months smoked rats [1, 4]: 3.3
- Cxcl2 gene expression relative to 8 months smoked rats [1, 4]: 2.3
- Cxcl5 gene expression relative to 8 months smoked rats [1, 4]: 50.1
- Cyp26a1 gene expression relative to 8 months smoked rats [1, 4]: 2.2
- EGFR gene expression relative to 8 months smoked rats [1, 4]: 4.8
- Eln gene expression relative to 8 months smoked rats [1, 4]: 5.6
- FGF7 gene expression relative to 8 months smoked rats [1, 4]: 2.1
- Flt1 gene expression relative to 8 months smoked rats [1, 4]: 1.7
- Hif1a gene expression relative to 8 months smoked rats [1, 4]: 1.7
- HpGF gene expression relative to 8 months smoked rats [1, 4]: 3.0
- Hyou1 gene expression relative to 8 months smoked rats [1, 4]: 2.7
- Il6 gene expression relative to 8 months smoked rats [1, 4]: 1.8
- Il8ra/CXCR1 gene expression relative to 8 months smoked rats [1, 4]: 3.8
- Il8rb/CXCR2 gene expression relative to 8 months smoked rats [1, 4]: 2.0
- Kdr gene expression relative to 8 months smoked rats [1, 4]: 1.3
- Mmp9 gene expression relative to 8 months smoked rats [1, 4]: 1.7
- Mmp12 gene expression relative to 8 months smoked rats [1, 4]: 4.9
- PDGFA gene expression relative to 8 months smoked rats [1, 4]: 4.3
- Pgf gene expression relative to 8 months smoked rats [1, 4]: 1.6
- Rbp1 gene expression relative to 8 months smoked rats [1, 4]: 2.1
- Serpina1 gene expression relative to 8 months smoked rats [1, 4]: 2.3
- Sftpa1 gene expression relative to 8 months smoked rats [1, 4]: 5.4
- Sftpb gene expression relative to 8 months smoked rats [1, 4]: 1.9
- Slpi gene expression relative to 8 months smoked rats [1, 4]: 3.6
- TNF gene expression relative to 8 months smoked rats [1, 4]: 3.3
- Tek gene expression relative to 8 months smoked rats [1, 4]: 1.4
- Tgfb1 gene expression relative to 8 months smoked rats [1, 4]: 1.4
- Tgfbr2 gene expression relative to 8 months smoked rats [1, 4]: 2.0
- Tgm2 gene expression relative to 8 months smoked rats [1, 4]: 16.2
- Timp3 gene expression relative to 8 months smoked rats [1, 4]: 3.5
- VEGFa gene expression relative to 8 months smoked rats [1, 4]: 1.6
- Adam17 gene expression relative to 8 months smoked rats [1, 5]: 3.6
- Angpt1 gene expression relative to 8 months smoked rats [1, 5]: 1.8
- Areg gene expression relative to 8 months smoked rats [1, 5]: 3.7
- Colla1 gene expression relative to 8 months smoked rats [1, 5]: 8.4
- Crabp2 gene expression relative to 8 months smoked rats [1, 5]: 1.5
- Csf2 gene expression relative to 8 months smoked rats [1, 5]: 1.9
- Cxcl1 gene expression relative to 8 months smoked rats [1, 5]: 2.9
- Cxcl2 gene expression relative to 8 months smoked rats [1, 5]: 1.6
- Cxcl5 gene expression relative to 8 months smoked rats [1, 5]: 50.0
- Cyp26a1 gene expression relative to 8 months smoked rats [1, 5]: 3.9
- EGFR gene expression relative to 8 months smoked rats [1, 5]: 3.2
- Eln gene expression relative to 8 months smoked rats [1, 5]: 6.1
- FGF7 gene expression relative to 8 months smoked rats [1, 5]: 2.1
- Flt1 gene expression relative to 8 months smoked rats [1, 5]: 1.8
- Hif1a gene expression relative to 8 months smoked rats [1, 5]: 1.4
- HpGF gene expression relative to 8 months smoked rats [1, 5]: 3.1
- Hyou1 gene expression relative to 8 months smoked rats [1, 5]: 3.3
- Il6 gene expression relative to 8 months smoked rats [1, 5]: 2.4
- Il8ra/CXCR1 gene expression relative to 8 months smoked rats [1, 5]: 4.5
- Il8rb/CXCR2 gene expression relative to 8 months smoked rats [1, 5]: 2.0
- Kdr gene expression relative to 8 months smoked rats [1, 5]: 1.9
- Mmp9 gene expression relative to 8 months smoked rats [1, 5]: 1.5
- Mmp12 gene expression relative to 8 months smoked rats [1, 5]: 5.9
- PDGFA gene expression relative to 8 months smoked rats [1, 5]: 2.9
- Pgf gene expression relative to 8 months smoked rats [1, 5]: 0.9
- Rbp1 gene expression relative to 8 months smoked rats [1, 5]: 3.5
- Serpina1 gene expression relative to 8 months smoked rats [1, 5]: 1.5
- Sftpa1 gene expression relative to 8 months smoked rats [1, 5]: 4.4
- Sftpb gene expression relative to 8 months smoked rats [1, 5]: 2.1
- Slpi gene expression relative to 8 months smoked rats [1, 5]: 1.6
- TNF gene expression relative to 8 months smoked rats [1, 5]: 4.2
- Tek gene expression relative to 8 months smoked rats [1, 5]: 1.3
- Tgfb1 gene expression relative to 8 months smoked rats [1, 5]: 2.0
- Tgfbr2 gene expression relative to 8 months smoked rats [1, 5]: 1.5
- Tgm2 gene expression relative to 8 months smoked rats [1, 5]: 28.3
- Timp3 gene expression relative to 8 months smoked rats [1, 5]: 2.9
- VEGFa gene expression relative to 8 months smoked rats [1, 5]: 2.3
- Adam17 gene expression relative to 8 months smoked rats [1, 6]: 7.8
- Angpt1 gene expression relative to 8 months smoked rats [1, 6]: 3.1
- Areg gene expression relative to 8 months smoked rats [1, 6]: 7.2
- Colla1 gene expression relative to 8 months smoked rats [1, 6]: 7.9
- Crabp2 gene expression relative to 8 months smoked rats [1, 6]: 1.4
- Csf2 gene expression relative to 8 months smoked rats [1, 6]: 2.9
- Cxcl1 gene expression relative to 8 months smoked rats [1, 6]: 6.5
- Cxcl2 gene expression relative to 8 months smoked rats [1, 6]: 3.4
- Cxcl5 gene expression relative to 8 months smoked rats [1, 6]: 81.6
- Cyp26a1 gene expression relative to 8 months smoked rats [1, 6]: 3.7
- EGFR gene expression relative to 8 months smoked rats [1, 6]: 4.0
- Eln gene expression relative to 8 months smoked rats [1, 6]: 9.4
- FGF7 gene expression relative to 8 months smoked rats [1, 6]: 1.6
- Flt1 gene expression relative to 8 months smoked rats [1, 6]: 2.6
- Hif1a gene expression relative to 8 months smoked rats [1, 6]: 2.0
- HpGF gene expression relative to 8 months smoked rats [1, 6]: 5.6
- Hyou1 gene expression relative to 8 months smoked rats [1, 6]: 5.8
- Il6 gene expression relative to 8 months smoked rats [1, 6]: 4.5
- Il8ra/CXCR1 gene expression relative to 8 months smoked rats [1, 6]: 4.2
- Il8rb/CXCR2 gene expression relative to 8 months smoked rats [1, 6]: 2.5
- Kdr gene expression relative to 8 months smoked rats [1, 6]: 1.7
- Mmp9 gene expression relative to 8 months smoked rats [1, 6]: 1.9
- Mmp12 gene expression relative to 8 months smoked rats [1, 6]: 7.3
- PDGFA gene expression relative to 8 months smoked rats [1, 6]: 4.5
- Pgf gene expression relative to 8 months smoked rats [1, 6]: 2.7
- Rbp1 gene expression relative to 8 months smoked rats [1, 6]: 3.9
- Serpina1 gene expression relative to 8 months smoked rats [1, 6]: 2.9
- Sftpa1 gene expression relative to 8 months smoked rats [1, 6]: 7.0
- Sftpb gene expression relative to 8 months smoked rats [1, 6]: 2.9
- Slpi gene expression relative to 8 months smoked rats [1, 6]: 4.4
- TNF gene expression relative to 8 months smoked rats [1, 6]: 4.0
- Tek gene expression relative to 8 months smoked rats [1, 6]: 1.3
- Tgfb1 gene expression relative to 8 months smoked rats [1, 6]: 3.2
- Tgfbr2 gene expression relative to 8 months smoked rats [1, 6]: 2.1
- Tgm2 gene expression relative to 8 months smoked rats [1, 6]: 24.6
- Timp3 gene expression relative to 8 months smoked rats [1, 6]: 4.8
- VEGFa gene expression relative to 8 months smoked rats [1, 6]: 2.9
- Restoration of smoke-suppressed gene expression in lung ([1]; rats smoked 8 months, then R667 daily 30 days): restore expression of these genes to near-normal levels
- Tropoelastin in lung tissue (effect of treatment) [2]: partially restored
- ELN expression level from microarray, relative to the 8 months smoked rat [3, 4]: 2.8 fold
- VEGF expression level from microarray, relative to the 8 months smoked rat [3, 4]: 1.7 fold
- ELN expression level from microarray, relative to the 8 months smoked rat [3, 5]: 3.1 fold
- VEGF expression level from microarray, relative to the 8 months smoked rat [3, 5]: 1.5 fold
- ELN expression level from microarray, relative to the 8 months smoked rat [3, 6]: 3.8 fold
- VEGF expression level from microarray, relative to the 8 months smoked rat [3, 6]: 2.4 fold

SMILES: CC1=C(/C=C/C(C)=C/C=C/C(C)=C/C(=O)O)C(C)(C)CCC1 [ATRA, all-trans retinoic acid, reference compound]
- Tropoelastin in lung tissue (effect of treatment) [2]: partially restored
